Results taken from patent US20160279299A1, “SILK FIBROIN-BASED FLUID DELIVERY SYSTEMS AND DEVICES” (TRUSTEES OF TUFTS COLLEGE, priority 2013, published 2016).

System: fat grafts (human lipoaspirate)
Test: In-vivo murine model of adipose tissue reconstruction: lipoaspirate fat graft perfused via silk fibroin-based catheter and osmotic pump
Method: Female athymic nude mice were divided into 3 groups: animals treated with insulin (n=24), dexamethasone (n=15), or PBS vehicle (n=10). The groups were further subdivided into four different doses for insulin (e.g., ˜100 μg, ˜300 μg, ˜650 μg, or ˜1000 μg) or three different doses for dexamethasone (e.g., ˜1 mg/ml, ˜2 mg/ml, ˜3 mg/ml). Osmotic pumps that can deliver a fluid with a selected flow rate for a period of time were prepared with the insulin or dexamethasone solution or PBS vehicle. In this Example, ALZET 4-week osmotic pumps with a selected flow rate of ˜0.11 μl/hr were used. One end of the silk fibroin-based catheter was connected to the pump, e.g., using medical grade silicone (e.g., Dow Corning) (FIG. 8A). The silk catheter/pump construct was primed for 48 hours at 37° C., per manufacturer's instructions.
Lipoaspirate grafts were obtained from human subcutaneous abdominal fat during scheduled elective surgery and processed for injection under laboratory conditions. Lipoaspirate was loaded into ˜1 ml syringes in sterile fashion. Mice were anesthetized with 2% isoflurane in oxygen at the time of the procedure. Once the anesthetic plane was obtained, the animals were prepped for sterile surgery. Each animal received two bilateral ˜500 μl subcutaneous injections of lipoaspirate on the dorsal region, for example, through a 16G Coleman cannula using the fan-injection technique, which uniformly spreads the fat graft created beneath the cutaneous layer. For each animal, one of the two fat grafts received a silk fibroin-based catheter connected to an implantable osmotic pump. The silk catheter/pump was implanted subcutaneously through a small incision between the scapulae, and the fat graft was placed surrounding the silk fibroin-based catheter. The incision for the catheter/pump implantation was closed with a standard wound clip. To prevent and/or reduce pain and discomfort, mice were given subcutaneous injections of ˜5 mg/kg ketoprofen (Fort Dodge Animal Health, Fort Dodge, Iowa) immediately after the surgical procedure and every 24 hours as needed.
At 4 weeks post surgery, the mice were euthanized using carbon dioxide asphyxiation followed by cervical dislocation, and graft tissue was isolated from the bilateral dorsal injection sites. Explants were assessed for mass on a standard laboratory balance, and volume was measured using a gas pycnometer (Accupyc II 1340; Micrometrics, Atlanta, Ga.). Immediately after the dimensional analysis was complete, the tissue samples were fixed in 10% neutral buffered formalin and processed and embedded in paraffin.

## C[C@@H]1C[C@H]2[C@@H]3CCC4=CC(=O)C=C[C@]4(C)[C@@]3(F)[C@@H](O)C[C@]2(C)[C@@]1(O)C(=O)CO [dexamethasone]
Dexamethasone at ~0.11 μL/hr, 28 days post-implantation
  dose with the largest effect on fat graft volume: ~2 mg/mL
mouse, in vivo
  adverse events during the therapy: no adverse events

## insulin
Highest insulin groups, ~1000 μg and ~650 μg
  survival of animals: generally died during the study period
Insulin at ~0.11 μL/hr, 28 days post-implantation
  group (dose) with the highest volume retention: ~300 µg
Insulin doses, 28 days
  H&E: cellular response to the silk fibroin-based catheter: little to no cellular response
Insulin ~300 μg group
  deaths: no deaths due to drug overdose
Insulin ~300 μg group, 28 days
  fat retention and adipogenesis: trend toward fat retention and adipogenesis
Insulin ~1000 μg dose, 28 days
  H&E: tissue around the silk fibroin-based catheter: a fibrous tissue was observed to surround the silk fibroin-based catheter
Insulin ~100, ~300, ~650, ~1000 μg at ~0.11 μL/hr, 28 days post-implantation, gas pycnometry
  volume retention of fat grafts, statistical significance: no statistical significance in volume retention
insulin-treated mice, 4 weeks
  fat graft health / biocompatibility: no evidence of oil cysts or adverse biocompatibility reaction
